Data reported in US20240059655A1, “HETEROCYCLIC G-PROTEIN-COUPLED RECEPTOR 52 (GPR52) AGONISTS” (Board of Regents, The University of Texas System, priority 2020, published 2024).
Like-named read-outs stand apart in the source and are kept apart here.

Tests used:
[1] = biological target: T1, human GPR52 (Homo sapiens (Human), UniProt Q9Y2T5); assay: Glosensor cAMP assay in HEK293 cells transiently expressing human GPR52; format: cell-based
Target sequence in this assay (Q9Y2T5 whole entry): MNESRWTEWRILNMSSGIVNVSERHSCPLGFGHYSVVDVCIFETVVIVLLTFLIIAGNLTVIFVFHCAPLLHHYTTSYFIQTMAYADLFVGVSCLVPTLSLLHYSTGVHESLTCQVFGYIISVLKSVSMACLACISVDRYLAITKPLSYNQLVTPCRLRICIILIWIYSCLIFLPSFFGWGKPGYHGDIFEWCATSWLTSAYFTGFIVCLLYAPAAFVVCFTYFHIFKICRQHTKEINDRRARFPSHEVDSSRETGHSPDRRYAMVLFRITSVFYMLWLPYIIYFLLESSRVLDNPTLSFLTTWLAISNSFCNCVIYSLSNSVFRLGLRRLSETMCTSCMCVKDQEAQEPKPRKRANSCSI

[2] = tested on: GPR52; settings: relative to compound 4a
Experimental: Bias factor calculations. Mean efficacy (Emax) and potency (EC50) were taken from at least three independent experiments for all compounds tested in both the cAMP and β-arrestin recruitment assays. Formulas for bias factor calculations were adapted from Kenakin^37. […] A ΔΔ log(Emax/EC50) value for each compound was calculated by subtraction of Δ log(Emax/EC50)β-arrestin from Δ log(Emax/EC50)cAmP. The inverse log of this ΔΔ log(Emax/EC50) value is the G protein bias factor. Conversely, the β-arrestin bias factor is calculated from the inverse log of ΔΔ log(Emax/EC50) when Δ log(Emax/EC50)cAmP is subtracted from Δ log(Emax/EC50)β-arrestin.

[3] = biological target: T1, human GPR52; assay: TANGO β-arrestin recruitment assay in HTLA cells expressing GPR52 TANGO construct; settings: read-out: β-Arrestin Recruitment Emax (%)
Target sequence in this assay (Q9Y2T5 whole entry, looked up, change not shown): as the sequence (Q9Y2T5 whole entry) above

[4] = HEK293, cAMP assay, relative to compound 4 as 100% and 0.5% DMSO as 0%, mean ± SEM, "—" not detected, read-out: Emax (%)

COC(=O)C(NC(=O)c1cccc(Nc2cc(Cc3cccc(C(F)(F)F)c3)ccn2)c1)[C@@H](C)O (stereo in doubt) [PW0673, Methyl (3-((4-(3-(trifluoromethyl)benzyl)pyridin-2-yl)amino)benzoyl)-D-allothreoninate]
Emax [1, 4]: 164 ± 12%

O=C(N[C@@H](CO)C(O)c1ccccc1)c1cccc(Nc2cc(Cc3cccc(C(F)(F)F)c3)ccn2)c1 (stereo in doubt) [PW0675, N-((1S)-1,3-Dihydroxy-1-phenylpropan-2-yl)-3-((4-(3-(trifluoromethyl)benzyl)pyridin-2-yl)amino)benzamide]
Emax [1, 4]: 188 ± 11%

O=C(NCCO)c1cccc2c1CCN2c1ccnc(Cc2cc(F)cc(C(F)(F)F)c2)n1 [Compound 12a, 1-(2-(3-Fuoro-5-(trifluoromethyl)benzyl)pyrimidin-4-yl)-N-(2-hydroxyethyl)indoline-4-carboxamide]
Emax [1, 4]: 144%

O=C(NCCO)c1cccc2c1CCN2c1nccc(Cc2cc(F)cc(C(F)(F)F)c2)n1 [Compound 12d, 1-(4-(3-Fluoro-5-(trifluoromethyl)benzyl)pyrimidin-2-yl)-N-(2-hydroxyethyl)indoline-4-carboxamide]
Emax [1, 4]: 138 ± 8%

Cc1c(Cc2cc(F)cc(C(F)(F)F)c2)cnnc1N1CCc2c(C(=O)NCCO)cccc21 [Compound 12e, 1-(5-(3-Fluoro-5-(trifluoromethyl)benzyl)-4-methylpyridazin-3-yl)-N-(2-hydroxyethyl)indoline-4-carboxamide]
decreased EC50 (loss of potency) on adding a 2-substituent to compound 12b [1]: > 4 fold
Emax ([1]; HEK293): 119 ± 6%

O=C(NCCO)c1cccc2c1CCN2c1nncc(Cc2cc(F)cc(C(F)(F)F)c2)c1Cl [Compound 12f, 1-(4-Chloro-5-(3-fluoro-5-(trifluoromethyl)benzyl)pyridazin-3-yl)-N-(2-hydroxyethyl)indoline-4-carboxamide]
Emax ([1]; HEK293): 97 ± 7%
decreased EC50 (loss of potency) on adding a 2-substituent to compound 12b ([1]; cAMP EC50): > 4 fold

O=C(c1cc(F)cc(C(F)(F)F)c1)c1cc(N2CCc3c(C(=O)NCCO)cccc32)ncn1 [Compound 25b, 1-(6-(3-Fluoro-5-(trifluoromethyl)benzoyl)pyrimidin-4-yl)-N-(2-hydroxyethyl)indoline-4-carboxamide]
Emax [1, 4]: 22 ± 3%

O=C(c1cccc(C(F)(F)F)c1)c1cc(N2CCc3c(C(=O)NCCO)cccc32)ncn1 [Compound 25c, N-(2-Hydroxyethyl)-1-(6-(3-(trifluoromethyl)benzoyl)pyrimidin-4-yl)indoline-4-carboxamide]
Emax [1, 4]: 22 ± 4%

O=C(NCCO)c1cccc2c1CCN2c1nccc(C(O)c2cc(F)cc(C(F)(F)F)c2)n1 (stereo not drawn) [Compound 25d]
Emax [1, 4]: 130 ± 9%

O=C(NCCO)c1cccc2c1CCN2c1cc(C(O)c2cc(F)cc(C(F)(F)F)c2)ncn1 (stereo not drawn) [Compound 25e]
Emax [1, 4]: 134 ± 28%

O=C(NCCO)c1cccc2c1CCN2c1nccc(C(F)c2cc(F)cc(C(F)(F)F)c2)n1 (stereo not drawn) [Compound 25g, 1-(4-(Fluoro(3-fluoro-5-(trifluoromethyl)phenyl)methyl)pyrimidin-2-yl)-N-(2-hydroxyethyl)indoline-4-carboxamide]
Emax [1, 4]: 144 ± 9%

O=C(NCCO)c1cccc2c1CCN2c1cc(C(F)c2cccc(C(F)(F)F)c2)ncn1 (stereo not drawn) [Compound 25i, 1-(6-(Fluoro(3-(trifluoromethyl)phenyl)methyl)pyrimidin-4-yl)-N-(2-hydroxyethyl)indoline-4-carboxamide]
Emax [1, 4]: 83 ± 5%

O=C(NCCO)c1cccc2c1CCN2c1cc(Nc2cccc(C(F)(F)F)c2)ncn1 [Compound 25j]
Emax [1, 4]: 81 ± 2%

O=C(NCCO)c1cccc2c1CCN2c1cc(Oc2cccc(C(F)(F)F)c2)ncn1 [Compound 25k, N-(2-Hydroxyethyl)-1-(6-(3-(trifluoromethyl)phenoxy)pyrimidin-4-yl)indoline-4-carboxamide]
Emax [1, 4]: 99 ± 4%

O=C(NCCO)c1cccc2c1CCN2c1cc(Sc2cccc(C(F)(F)F)c2)ncn1 [Compound 25l]
Emax [1, 4]: 123 ± 6%

O=C(c1cccc2c1CCN2c1cc(Cc2cc(F)cc(C(F)(F)F)c2)ncn1)N1CC(O)C1 [Compound 30e, (1-(6-(3-Fluoro-5-(trifluoromethyl)benzyl)pyrimidin-4-yl)indolin-4-yl)(3-hydroxyazetidin-1-yl)methanone]
Emax [1, 4]: 111 ± 10%

O=C(c1cccc2c1CCN2c1cc(Cc2cc(F)cc(C(F)(F)F)c2)ncn1)N(CCO)CCO [Compound 30g, 1-(6-(3-Fluoro-5-(trifluoromethyl)benzyl)pyrimidin-4-yl)-N,N-bis(2-hydroxyethyl)indoline-4-carboxamide]
Emax [1, 4]: 119 ± 15%

O=C(N[C@H]1CC[C@H](O)CC1)c1cccc(Nc2cc(Cc3cccc(C(F)(F)F)c3)ccn2)c1 [PW0674, N-((1r,4R)-4-Hydroxycyclohexyl)-3-((4-(3-(trifluoromethyl)benzyl)pyridin-2-yl)amino)benzamide]
Emax ([1]; HEK293): 131 ± 13%

O=C(NC(CO)CO)c1cccc(Nc2cc(Cc3cccc(C(F)(F)F)c3)ccn2)c1 [PW0676, N-(1,3-Dihydroxypropan-2-yl)-3-((4-(3-(trifluoromethyl)benzyl)pyridin-2-yl)amino)benzamide]
Emax ([1]; HEK293): 214 ± 19%
G Protein Bias Factor [2]: 66.3
β-Arrestin Bias Factor [2]: 0.015
Emax [3]: 125 ± 12%

O=C(NCC(O)CO)c1cccc(Nc2cc(Cc3cccc(C(F)(F)F)c3)ccn2)c1 (stereo not drawn) [PW0677, N-(2,3-Dihydroxypropyl)-3-((4-(3-(trifluoromethyl)benzyl)pyridin-2-yl)amino)benzamide]
Emax ([1]; HEK293): 268 ± 12%
G Protein Bias Factor [2]: 63.2
β-Arrestin Bias Factor [2]: 0.016
Emax [3]: 127 ± 7%

O=C(c1cccc(Nc2cc(Cc3cccc(C(F)(F)F)c3)ccn2)c1)N1CCOCC1 [PW0823]
Emax ([1]; HEK293): 93 ± 7%

O=C(NCC(F)F)c1cccc(Nc2cc(Cc3cccc(C(F)(F)F)c3)ccn2)c1 [PW0824]
Emax ([1]; HEK293): 152 ± 7%

COCCNC(=O)c1cccc(Nc2cc(Cc3cccc(C(F)(F)F)c3)ccn2)c1 [PW0825, N-(2-Methoxyethyl)-3-((4-(3-(trifluoromethyl)benzyl)pyridin-2-yl)amino)benzamide]
Emax ([1]; HEK293): 131 ± 15%

O=C(NCCCCO)c1cccc(Nc2cc(Cc3cccc(C(F)(F)F)c3)ccn2)c1 [PW0832, N-(4-Hydroxybutyl)-3-((4-(3-(trifluoromethyl)benzyl)pyridin-2-yl)amino)benzamide]
Emax ([1]; HEK293): 129 ± 8%

Cc1c(Nc2cc(Cc3ccc(Cl)cc3F)ccn2)cccc1C(=O)NCCO [PW0868, 3-((4-(4-Chloro-2-fluorobenzyl)pyridin-2-yl)amino)-N-(2-hydroxyethyl)-2-methylbenzamide]
Emax ([1]; HEK293): 131 ± 8%
